In US20240059694A1, “COMPOUND CONTAINING 1,3-BENZODIOXOL STRUCTURE AND PREPARATION METHOD AND USE THEREOF” (priority 2021, published 2024):

Assays:
[1] = target: BTK (Homo sapiens (Human), UniProt Q06187); experiment: BTK kinase inhibitory activity experiment (Caliper EZ reader conversion rate); type: biochemical; conditions: for IC50: in vitro kinase assay, 20 min incubation, class key in μM; for inhibitory activity on BTK (in words): summary of Table 1
Protocol: (§1) Experimental method: The 384-well plate was divided into compound wells (starting at 10 μM, diluted three times to produce 10 concentrations), positive control wells and negative control wells; kinase solution was added to compound wells and positive control wells, and 1×kinase buffer was added to negative control wells; the solution is next centrifuged for 30 seconds and incubated at room temperature for 10 min. Add 15 μL of the mixed solution of ATP and substrate, shake and mix well after centrifugation and incubate at room temperature (30 min for JAK3, 20 min for BTK). Add stop detection solution to stop the reaction, and read the conversion rate with Caliper EZ reader, Data analysis: The formula is as follows: […]
(§2) where Conversion %_sample is the conversion rate reading of the sample Conversion %_min is the average value of the negative control wells representing the conversion rate reading of the wells without enzyme addition; and Conversion %_max is the average value of the positive control wells representing the conversion rate reading of the wells without adding the compound. Fit the dose-response curve: Taking the log value of the concentration as the X-axis, and the percentage inhibition rate as the Y-axis, the dose-response curve was fitted using the log (inhibitor) vs. response-Variable slope of the software GraphPad Prism 5, so as to obtain the IC50 value of each compound on the enzyme activity.

[2] = test system: Daudi cells; experiment: Proliferation inhibition of Daudi cells (Cell Titer-Glo, 72 h); type: cell-based; conditions: 72 h drug action, class key in μM
Protocol: (§3) Experimental procedure: A certain number of cells in the logarithmic growth phase were inoculated in a 96-well plate and cultured at 37° C. before adding drugs. After 72 h of drug action, after the 96-well cell plate was equilibrated to room temperature, 40 μL of Cell Titer-Glo® reagent was added to each well; each plate was then shaken for 2 min and allowed to stand for 10 min, the chemiluminescent signal was detected with an MD SpectraMax Paradigm microplate reader. Data analysis: The formula is as follows: […]
(§4) Max signal: DMSO signal; Min signal: medium signal, IC50 was calculated using GraphPad Prism 5.

[3] = target: JAK3 (Homo sapiens (Human), UniProt P52333); experiment: JAK3 kinase inhibitory activity experiment (Caliper EZ reader conversion rate); type: biochemical; conditions: for IC50: in vitro kinase assay, 30 min incubation, class key in μM; for inhibitory activity on JAK3 (in words): summary of Table 1
JAK3, sequence (P52333 whole entry): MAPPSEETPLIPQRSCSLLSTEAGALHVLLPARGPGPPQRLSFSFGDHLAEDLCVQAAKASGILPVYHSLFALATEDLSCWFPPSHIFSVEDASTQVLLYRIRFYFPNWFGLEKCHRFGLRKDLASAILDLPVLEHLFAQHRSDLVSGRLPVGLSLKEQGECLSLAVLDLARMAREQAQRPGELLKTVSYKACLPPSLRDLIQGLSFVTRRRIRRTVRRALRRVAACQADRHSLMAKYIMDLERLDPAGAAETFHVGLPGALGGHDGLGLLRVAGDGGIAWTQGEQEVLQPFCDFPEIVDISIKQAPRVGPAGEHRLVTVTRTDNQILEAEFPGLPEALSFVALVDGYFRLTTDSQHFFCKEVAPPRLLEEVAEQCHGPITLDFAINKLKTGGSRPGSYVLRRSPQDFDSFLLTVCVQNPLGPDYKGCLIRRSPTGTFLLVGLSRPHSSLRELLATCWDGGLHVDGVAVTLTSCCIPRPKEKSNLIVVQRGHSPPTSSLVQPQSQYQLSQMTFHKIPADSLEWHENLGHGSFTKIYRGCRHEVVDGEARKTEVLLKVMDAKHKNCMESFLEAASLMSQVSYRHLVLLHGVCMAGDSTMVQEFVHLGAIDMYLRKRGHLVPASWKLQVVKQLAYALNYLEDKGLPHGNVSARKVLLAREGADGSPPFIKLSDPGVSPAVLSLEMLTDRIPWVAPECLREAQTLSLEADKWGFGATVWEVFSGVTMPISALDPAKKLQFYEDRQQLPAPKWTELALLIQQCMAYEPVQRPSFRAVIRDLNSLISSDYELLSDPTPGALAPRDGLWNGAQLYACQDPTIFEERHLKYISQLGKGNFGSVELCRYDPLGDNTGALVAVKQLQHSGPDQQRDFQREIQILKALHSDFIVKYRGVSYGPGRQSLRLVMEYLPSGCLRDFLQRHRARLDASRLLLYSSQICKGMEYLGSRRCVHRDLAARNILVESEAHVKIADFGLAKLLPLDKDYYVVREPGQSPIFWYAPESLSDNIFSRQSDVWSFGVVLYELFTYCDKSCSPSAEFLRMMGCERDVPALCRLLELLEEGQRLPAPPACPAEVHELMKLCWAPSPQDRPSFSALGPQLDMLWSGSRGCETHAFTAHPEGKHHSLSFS
Protocol: as §1, §2

[4] = test system: BaF3-TEL-JAK3 cells; experiment: Proliferation inhibition of BaF3-TEL-JAK3 cells (Cell Titer-Glo, 72 h); type: cell-based; conditions: 72 h drug action, class key in μM
Protocol: as §3, §4

BTK, sequence (Q06187 whole entry): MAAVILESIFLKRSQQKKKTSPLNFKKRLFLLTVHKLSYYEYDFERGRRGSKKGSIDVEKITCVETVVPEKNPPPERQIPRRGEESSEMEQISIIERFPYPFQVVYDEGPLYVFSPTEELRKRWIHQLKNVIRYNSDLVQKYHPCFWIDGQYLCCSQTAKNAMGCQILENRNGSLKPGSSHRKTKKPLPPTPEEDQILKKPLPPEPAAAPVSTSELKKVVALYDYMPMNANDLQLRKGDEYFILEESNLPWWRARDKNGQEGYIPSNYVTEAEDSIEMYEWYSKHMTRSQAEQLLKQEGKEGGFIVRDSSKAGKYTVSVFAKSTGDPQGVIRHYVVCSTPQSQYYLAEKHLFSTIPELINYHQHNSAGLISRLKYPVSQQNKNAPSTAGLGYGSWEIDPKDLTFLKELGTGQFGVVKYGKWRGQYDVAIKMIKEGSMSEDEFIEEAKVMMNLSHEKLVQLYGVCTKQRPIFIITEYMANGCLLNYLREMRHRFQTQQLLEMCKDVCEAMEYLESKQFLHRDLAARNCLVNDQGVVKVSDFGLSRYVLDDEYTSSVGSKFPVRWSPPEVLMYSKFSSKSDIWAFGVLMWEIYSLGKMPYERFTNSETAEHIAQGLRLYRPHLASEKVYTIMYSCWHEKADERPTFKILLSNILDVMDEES

## C=CC(=O)N1CCC[C@@H](n2nc(-c3ccc(NC(=O)c4ccc[nH]4)c4c3OCO4)c3c(N)ncnc32)C1 [I-3, (R)-N-(7-(1-(1-acryloylpiperidin-3-yl)-4-amino-1H-pyrazolo[3,4d]pyrimidin-3-)benzo[d][1,3]dioxoheterocyclopenten-4)-1H-pyrrole-2-formamide]
[1]
  IC50: 0.001 to 0.05 µM
[2]
  IC50: 0.5 to 1 µM
[3]
  IC50: 0.05 to 0.5 µM
[4]
  IC50: 0.5 to 1 µM

## C=CC(=O)N1CCC[C@@H](n2nc(-c3ccc(NC(=O)c4ccccn4)c4c3OCO4)c3c(N)ncnc32)C1 [I-4, (R)-N-(7-(1-(1-acryloylpiperidin-3)-4-amino-1H-pyrazolo[3,4-d]pyrimidin-3-yl)benzo[d][1,3]dioxoheterocyclopenten-4)pyridine-2-formamide]
[1]
  IC50: 0.001 to 0.05 µM
[2]
  IC50: 0.5 to 1 µM
[3]
  IC50: 0.05 to 0.5 µM
[4]
  IC50: 0.5 to 1 µM

## C=CC(=O)N1CCC[C@@H](n2nc(-c3ccc(NC(=O)c4cccc(Cl)c4)c4c3OCO4)c3c(N)ncnc32)C1 [I-6, (R)-N-(7-(1-(1-acryloylpiperidin-3)-4-amino-1H-pyrazolo[3,4-d]pyrimidin-3-)benzo[d][1,3]dioxoheterocyclopenten-4)-3-chlorobenzamide]
[1]
  IC50: 0.001 to 0.05 µM
  inhibitory activity on BTK (in words): excellent inhibitory activity
[2]
  IC50: 0.5 to 1 µM
[3]
  IC50: 0.001 to 0.05 µM
  inhibitory activity on JAK3 (in words): excellent inhibitory activity
[4]
  IC50: 0.5 to 1 µM

## C=CC(=O)N1CCC[C@@H](n2nc(-c3ccc(NC(=O)c4ccc(Cl)cc4)c4c3OCO4)c3c(N)ncnc32)C1 [I-7, (R)-N-(7-(1-(1-acryloylpiperidin-3)-4-amino-1H-pyrazolo[3,4d]pyrimidin-3-)benzo[d][1,3]dioxoheterocyclopenten-4)-4-chlorobenzamide]
[1]
  IC50: 0.001 to 0.05 µM
  inhibitory activity on BTK (in words): excellent inhibitory activity
[2]
  IC50: 0.5 to 1 µM
[3]
  IC50: 0.001 to 0.05 µM
  inhibitory activity on JAK3 (in words): excellent inhibitory activity
[4]
  IC50: 0.5 to 1 µM

## C=CC(=O)N1CCC[C@@H](n2nc(-c3ccc(NC(=O)c4ccc(C(C)(C)C)cc4)c4c3OCO4)c3c(N)ncnc32)C1 [I-11, (R)-N-(7-(1-(1-acryloylpiperidin-3)-4-amino-1H-pyrazolo[3,4-d]pyrimidin-3-)benzo[d][1,3]dioxoheterocyclopenten-4)-4-tert-butylbenzamide]
[1]
  IC50: 0.001 to 0.05 µM
  inhibitory activity on BTK (in words): excellent inhibitory activity
[2]
  IC50: 0.01 to 0.5 µM
[3]
  IC50: 0.001 to 0.05 µM
  inhibitory activity on JAK3 (in words): excellent inhibitory activity
[4]
  IC50: 0.01 to 0.5 µM

## C=CC(=O)N1CCC[C@@H](n2nc(-c3ccc(NC(=O)c4ccc(N(C)C)cc4)c4c3OCO4)c3c(N)ncnc32)C1 [I-13, (R)-N-(7-(1-(1-acryloylpiperidin-3)-4-amino-1H-pyrazolo[3,4-d]pyrimidin-3-)benzo[d][1,3]dioxoheterocyclopenten-4)-4-(dimethylamino)benzamide]
[1]
  IC50: 0.001 to 0.05 µM
[2]
  IC50: 0.5 to 1 µM
[3]
  IC50: 0.001 to 0.05 µM
[4]
  IC50: 0.01 to 0.5 µM

## C=CC(=O)N1CCC[C@@H](n2nc(-c3ccc(NC(=O)c4ccc(N(CC)CC)cc4)c4c3OCO4)c3c(N)ncnc32)C1 [I-15, (R)-N-(7-(1-(1-acryloylpiperidin-3)-4-amino-1H-pyrazolo[3,4-d]pyrimidin-3-)benzo[d][1,3]dioxoheterocyclopenten-4)-4-(diethylamino)benzamide]
[1]
  IC50: 0.001 to 0.05 µM
[2]
  IC50: 0.5 to 1 µM
[3]
  IC50: 0.001 to 0.05 µM
[4]
  IC50: 0.01 to 0.5 µM

## C=CC(=O)N1CCC[C@@H](n2nc(-c3ccc(NC(=O)c4sc5ccccc5c4Cl)c4c3OCO4)c3c(N)ncnc32)C1 [I-16, (R)-N-(7-(1-(1-acryloylpiperidin-3)-4-amino-1H-pyrazolo[3,4-d]pyrimidin-3-yl)benzo[d][1,3]dioxoheterocyclopenten-4-)-3-chlorobenzo[b]thiophene-2-formamide]
[1]
  IC50: 0.001 to 0.05 µM
[2]
  IC50: 0.01 to 0.5 µM
[3]
  IC50: 0.001 to 0.05 µM
[4]
  IC50: 0.01 to 0.5 µM

## C=CC(=O)N1CCC[C@@H](n2nc(-c3ccc(NC(=O)c4cccc5ccccc45)c4c3OCO4)c3c(N)ncnc32)C1 [I-17, (R)-N-(7-(1-(1-acryloylpiperidin-3-yl)-4-amino-1H-pyrazolo[3,4-d]pyrimidin-3-)benzo[d][1,3]dioxoheterocyclopenten-4-)-1-naphthalenecarboxamide]
[1]
  IC50: 0.001 to 0.05 µM
[2]
  IC50: 0.5 to 1 µM
[3]
  IC50: 0.001 to 0.05 µM
[4]
  IC50: 0.5 to 1 µM

## C=CC(=O)N1CCC[C@@H](n2nc(-c3ccc(NC(=O)c4ccc5ccccc5c4)c4c3OCO4)c3c(N)ncnc32)C1 [I-18, (R)-N-(7-(1-(1-acryloylpiperidin-3)-4-amino-1H-pyrazolo[3,4-d]pyrimidin-3-)benzo[d][1,3]dioxoheterocyclopenten-4)-2-naphthalenecarboxamide]
[1]
  IC50: 0.001 to 0.05 µM
[2]
  IC50: 0.5 to 1 µM
[3]
  IC50: 0.001 to 0.05 µM
[4]
  IC50: 0.5 to 1 µM

## C=CC(=O)N1CCC[C@@H](n2nc(-c3ccc(NC(=O)c4cccc5c4CCCC5)c4c3OCO4)c3c(N)ncnc32)C1 [I-20, (R)-N-(7-(1-(1-acryloylpiperidin-3-yl)-4-amino-1H-pyrazolo[3,4-d]pyrimidin-3-)benzo[d][1,3]dioxoheterocyclopenten-4-)-5,6,7,8-tetrahydronaphthalene-1-carboxamide]
[1]
  IC50: 0.001 to 0.05 µM
[2]
  IC50: 0.5 to 1 µM
[3]
  IC50: 0.001 to 0.05 µM
[4]
  IC50: 0.5 to 1 µM

## C=CC(=O)N1CCC[C@@H](n2cc(-c3ccc(NC(=O)c4cccc5ccccc45)c4c3OCO4)c3c(N)ncnc32)C1 [I-21, (R)-N-(7-(7-(1-acryloylpiperidin-3-yl)-4-amino-7H-pyrrolo[2,3-d]pyrimidin-5-yl)benzo[d][1,3]dioxoheterocyclopenten-4-)-1-naphthalenecarboxamide]
[1]
  IC50: 0.001 to 0.05 µM
[2]
  IC50: 0.5 to 1 µM
[3]
  IC50: 0.001 to 0.05 µM
[4]
  IC50: 0.5 to 1 µM

## C=CC(=O)N1CCC[C@@H](n2nc(-c3ccc(NC(=O)c4ccc(-c5ccccc5)cc4)c4c3OCO4)c3c(N)ncnc32)C1 [I-24, (R)-N-(7-(1-(1-acryloylpiperidin-3-yl)-4-amino-1H-pyrazolo[3,4-d]pyrimidin-3-)benzo[d][1,3]dioxoheterocyclopenten-4)-[1,1′-Biphenyl]-4-carboxamide]
[1]
  IC50: 0.001 to 0.05 µM
[2]
  IC50: 0.01 to 0.5 µM
[3]
  IC50: 0.05 to 0.5 µM
[4]
  IC50: 0.01 to 0.5 µM
